From ChEMBL document CHEMBL3044697, “Natural products-based insecticidal agents 13. Semisynthesis and insecticidal activity of novel phenazine derivatives of 4β-acyloxypodophyllotoxin modified in the E-ring against Mythimna separata Walker in vivo” (2013) come the findings set out here.

Assay [1] has as its system Mythimna separata. The experiment in a line: Insecticidal activity against Mythimna separata (Oriental armyworm) pre-third-instar larvae fed on 1 mg/ml compound pre-treated wheat leaves assessed as insect mortality measured after 20 days by leaf-dipping method. The assay is classed as functional.
The subject of assay [2] is Mythimna separata. Kind of assay: Insecticidal activity against Mythimna separata (Oriental armyworm) pre-third-instar larvae fed on 1 mg/ml compound pre-treated wheat leaves assessed as insect mortality by leaf-dipping method. The format is functional, organism-based. The settings on record: TDE = time-dependent effect.
Assay [3] has as its system Mythimna separata. Kind of assay: Insecticidal activity against Mythimna separata (Oriental armyworm) pre-third-instar larvae fed on 1 mg/ml compound pre-treated wheat leaves assessed as induction of malformation of pupae with imperfect wings measured during emergence period by leaf-dipping method. The format is functional, organism-based.
For assay [4], the system named is Mythimna separata. The experiment in a line: Insecticidal activity against Mythimna separata (Oriental armyworm) pre-third-instar larvae fed on 1 mg/ml compound pre-treated wheat leaves assessed as insect mortality measured after 10 days by leaf-dipping method. The assay is classed as functional.
Assay [5] has as its system Mythimna separata. The experiment in a line: Insecticidal activity against Mythimna separata (Oriental armyworm) pre-third-instar larvae fed on 1 mg/ml compound pre-treated wheat leaves assessed as insect mortality measured after 34 days by leaf-dipping method. The assay is classed as functional.
For assay [6], the system named is Mythimna separata. The experiment in a line: Insecticidal activity against Mythimna separata (Oriental armyworm) pre-third-instar larvae fed on 1 mg/ml compound pre-treated wheat leaves assessed as induction of malformation of pupae measured during pupation period by leaf-dipping method. The assay is classed as functional, organism-based.

Activity calls are given as the source filed them. The calls are words filed in the database; no cut-off is given here.

Regarding `CCCC(=O)O[C@@H]1c2cc3c(cc2[C@@H](c2cc(OC)c4nc5ccccc5nc4c2)[C@H]2C(=O)OC[C@@H]21)OCO3`, the values for the mortality in the assay on Mythimna separata [1], with Mythimna separata [4] and in the assay with Mythimna separata [5] were 10.3%, 3.3% and 37.9%, respectively. The Activity result with Mythimna separata [2] was “tde”. Further, the outcome in the assay with Mythimna separata [3] was Active.

As to `CCCCCCCCCCC(=O)O[C@@H]1c2cc3c(cc2[C@@H](c2cc(OC)c4nc5ccccc5nc4c2)[C@H]2C(=O)OC[C@@H]21)OCO3`, the values for the mortality in the assay on Mythimna separata [1], in the assay on Mythimna separata [4] and in the assay with Mythimna separata [5] were 10.3%, 0% and 37.9%, respectively. The Activity result in the assay with Mythimna separata [2] is “tde”. Also, the outcome in the assay on Mythimna separata [6] and with Mythimna separata [3] was Active.

For `CC(=O)O[C@@H]1C[C@H](O)[C@@]23CO[C@@H](O)[C@]1(C)[C@@H]2C[C@@H](O)[C@]1(C)[C@@H]3C(=O)[C@H](OC(C)=O)[C@@]2(C)[C@H](c3ccoc3)C[C@H]3O[C@]321` [TOOSENDANIN], the mortality (in general, the share of the test organisms that died) is on record as 27.6% in the assay with Mythimna separata [1], 10% in the assay with Mythimna separata [4] and 51.7% in the assay on Mythimna separata [5]. For the same compound, the Activity entry in the assay with Mythimna separata [2] was “tde”.

On to `COc1cc([C@@H]2c3cc4c(cc3[C@@H](OC(=O)Cc3ccc5ccccc5c3)[C@H]3COC(=O)[C@H]23)OCO4)cc2nc3ccccc3nc12`, for which the mortality with Mythimna separata [1] was 6.9%; in the assay with Mythimna separata [4], 3.3%; in the assay on Mythimna separata [5], 51.7%. In addition, the Activity result in the assay on Mythimna separata [2] was “tde”. The result in the assay with Mythimna separata [3] was Active.

With `COc1cc([C@@H]2c3cc4c(cc3[C@@H](O)[C@H]3COC(=O)[C@H]23)OCO4)cc(OC)c1O` [4'-DEMETHYLEPIPODOPHYLLOTOXIN], the mortality was determined as 13.8% with Mythimna separata [1], 6.7% in the assay on Mythimna separata [4] and 37.9% in the assay with Mythimna separata [5]. In addition, the Activity result with Mythimna separata [2] was “tde”.

`CCCCCCCCCCCC(=O)O[C@@H]1c2cc3c(cc2[C@@H](c2cc(OC)c4nc5ccccc5nc4c2)[C@H]2C(=O)OC[C@@H]21)OCO3`: the mortality is listed as 6.9% in the assay on Mythimna separata [1], 0% in the assay with Mythimna separata [4] and 34.5% in the assay with Mythimna separata [5]. The Activity entry in the assay with Mythimna separata [2] is “tde”. Moreover, the result in the assay with Mythimna separata [6] was Active.

Regarding `COc1cc([C@@H]2c3cc4c(cc3[C@@H](O)[C@H]3COC(=O)[C@H]23)OCO4)cc2nc3ccccc3nc12`, the mortality worked out at 13.8% with Mythimna separata [1], 3.3% with Mythimna separata [4] and 31% with Mythimna separata [5]. Also, in the assay on Mythimna separata [2], the Activity entry was “tde”. The result in the assay on Mythimna separata [6] was Active.

For `COc1cc([C@@H]2c3cc4c(cc3[C@@H](OC(=O)c3ccc(Cl)cc3)[C@H]3COC(=O)[C@H]23)OCO4)cc2nc3ccccc3nc12`, the mortality worked out at 17.2% with Mythimna separata [1], 0% in the assay on Mythimna separata [4] and 48.3% in the assay on Mythimna separata [5]. For the same compound, the Activity result in the assay on Mythimna separata [2] is “tde”.

For the compound `COc1cc([C@@H]2c3cc4c(cc3[C@@H](OC(C)=O)[C@H]3COC(=O)[C@H]23)OCO4)cc2nc3ccccc3nc12`, the figures for the mortality in the assay with Mythimna separata [1], in the assay on Mythimna separata [4] and in the assay with Mythimna separata [5] were 20.7%, 6.7% and 41.4%, respectively. Further, in the assay on Mythimna separata [2], the Activity result is “tde”.

As to `COc1cc([C@@H]2c3cc4c(cc3[C@H](O)[C@H]3COC(=O)[C@H]23)OCO4)cc(OC)c1OC` [PODOFILOX], the mortality in the assay with Mythimna separata [1] is recorded as 17.2%; in the assay with Mythimna separata [4], 6.7%; in the assay with Mythimna separata [5], 34.5%. The Activity result in the assay with Mythimna separata [2] was “tde”.

As to `CCC(=O)O[C@@H]1c2cc3c(cc2[C@@H](c2cc(OC)c4nc5ccccc5nc4c2)[C@H]2C(=O)OC[C@@H]21)OCO3`, the figures for the mortality in the assay on Mythimna separata [1], in the assay on Mythimna separata [4] and with Mythimna separata [5] were 27.6%, 20% and 55.2%, respectively. For the same compound, the Activity result in the assay with Mythimna separata [2] is “tde”. In addition, in the assay on Mythimna separata [3], the outcome was Active.

As for `COc1cc([C@@H]2c3cc4c(cc3[C@@H](OC(=O)c3cccc(C)c3)[C@H]3COC(=O)[C@H]23)OCO4)cc2nc3ccccc3nc12`, the mortality with Mythimna separata [1] is 13.8%; in the assay on Mythimna separata [4], 6.7%; with Mythimna separata [5], 41.4%. Besides, the Activity result in the assay on Mythimna separata [2] was “tde”. Also, the outcome with Mythimna separata [3] was Active.

`COc1cc([C@@H]2c3cc4c(cc3[C@@H](OC(=O)c3ccc(Cl)c([N+](=O)[O-])c3)[C@H]3COC(=O)[C@H]23)OCO4)cc2nc3ccccc3nc12`: the mortality in the assay with Mythimna separata [1] is given as 27.6%; in the assay on Mythimna separata [4], 10%; in the assay with Mythimna separata [5] it was 55.2%. The Activity result with Mythimna separata [2] is “tde”. Further, the outcome with Mythimna separata [3] was Active.

As for `COc1cc([C@@H]2c3cc4c(cc3[C@@H](OC(=O)c3ccc([N+](=O)[O-])cc3)[C@H]3COC(=O)[C@H]23)OCO4)cc2nc3ccccc3nc12`, the figures for the mortality in the assay on Mythimna separata [1], with Mythimna separata [4] and in the assay on Mythimna separata [5] were 13.8%, 3.3% and 37.9%, respectively. The Activity result with Mythimna separata [2] was “tde”.

In the case of `COc1cc([C@@H]2c3cc4c(cc3[C@@H](OC(=O)c3ccccc3)[C@H]3COC(=O)[C@H]23)OCO4)cc2nc3ccccc3nc12`, the values for the mortality with Mythimna separata [1], in the assay on Mythimna separata [4] and in the assay on Mythimna separata [5] were 17.2%, 3.3% and 24.1%, respectively. Besides, the Activity result in the assay on Mythimna separata [2] is “tde”.

In the case of `CCCCCCCCCCCCCCCC(=O)O[C@@H]1c2cc3c(cc2[C@@H](c2cc(OC)c4nc5ccccc5nc4c2)[C@H]2C(=O)OC[C@@H]21)OCO3`, the mortality is listed as 6.9% in the assay with Mythimna separata [1], 0% with Mythimna separata [4] and 27.6% with Mythimna separata [5]. Also, in the assay on Mythimna separata [2], the Activity entry was “tde”.

Regarding `COc1cc([C@@H]2c3cc4c(cc3[C@@H](OC(=O)c3cccc(Cl)c3)[C@H]3COC(=O)[C@H]23)OCO4)cc2nc3ccccc3nc12`, the mortality in the assay with Mythimna separata [1] stood at 17.2%; in the assay on Mythimna separata [4], 6.7%; in the assay on Mythimna separata [5] it was 41.4%. Besides, in the assay on Mythimna separata [2], the Activity result was “tde”. Moreover, the result in the assay with Mythimna separata [6] was Active.

In the case of `COc1cc([C@@H]2c3cc4c(cc3[C@@H](OC(=O)c3ccccc3Cl)[C@H]3COC(=O)[C@H]23)OCO4)cc2nc3ccccc3nc12`, the values for the mortality in the assay on Mythimna separata [1], with Mythimna separata [4] and in the assay with Mythimna separata [5] were 20.7%, 10% and 51.7%, respectively. The Activity entry with Mythimna separata [2] was “tde”. For the same compound, the result with Mythimna separata [6] was Active.
